The test system of experiment [1] is M. tuberculosis persister cells. The note with it: data not shown.
The test system of experiment [2] is Staphylococcus aureus. The experiment is classed as cell-based. The note with it: stationary phase ≅10^9 bacteria/ml, 100 μg/ml ampicillin, 3 days.
Experiment [3] relates to Escherichia coli K12. In kind it is cell-based. The note with it: stationary phase ≅10^9 bacteria/ml, 50 μg/ml kanamycin, 3 days.
Experiment [4] relates to M. tuberculosis H37Rv. The experiment is classed as cell-based, Mycobacterium tuberculosis.
Experiment [5] relates to M. tuberculosis. The experiment can be described thus: Incorporation of [3H]-uridine into RNA after addition of rifampicin. The experiment is classed as cell-based, Mycobacterium tuberculosis. As to the method:
For incorporation of radioactive uridine, 10 ml of the culture for each time point was washed twice to remove the remaining rifampicin and then resuspended in 10 ml 7H9 medium followed by incubation with 10 μCi/ml of [^3H]-uridine for 20 hours. For 5* the culture was not washed after incubation with rifampicin and 10 μCi/ml of [^3H]-uridine was added to the culture which was further incubated in the presence of rifampicin for 20 hours. The RNA was extracted by methods known in the art. The RNA [^3H]-uridine incorporation was determined as counts per minute of trichloroacetic acid precipitated RNA. The results were confirmed in three independent experiments.

Experiment [6] deals with M. tuberculosis. The experiment can be described thus: RT-PCR of gene transcripts before and after rifampicin treatment. The note with it: 12 hours in growth medium alone. The experiment is classed as cell-based, Mycobacterium tuberculosis. How it is done: The metabolic state of bacilli before and after rifampicin treatment was also assessed by examining total RNA which was extracted. RT-PCR was performed on the following genes; rpoB which encodes the rifampicin target (RNA polymerase sub-unit B); 16 kDa protein α-crystallin homolog); 16S rRNA and two Sigma 70 homologues, sigA and sigB.

These results are taken from patent US7892782B2 (priority 1998, dated 2011).

Structures are written as SMILES.

For `O=C(O)CN(CCN(CC(=O)O)CC(=O)O)CC(=O)O` [EDTA], the “effect on persister cell walls and efficacy of rifampicin” value in experiment [1] is “permeabilizes persister cell walls and increases the efficacy of rifampicin”.
Turning to `CC1(C)S[C@@H]2[C@H](NC(=O)[C@H](N)c3ccccc3)C(=O)N2[C@H]1C(=O)O` [ampicillin], the “phenotypically resistant subpopulation remaining” value in experiment [2] was ~10^5 bacteria/ml.
As to `NC[C@H]1O[C@H](O[C@H]2[C@H](O)[C@@H](O[C@H]3O[C@H](CO)[C@@H](O)[C@H](N)[C@H]3O)[C@H](N)C[C@@H]2N)[C@H](O)[C@@H](O)[C@@H]1O` [kanamycin], in experiment [3], the “phenotypically resistant subpopulation remaining” value is ~10^5 bacteria/ml.
Regarding `CO[C@H]1/C=C/O[C@@]2(C)Oc3c(C)c(O)c4c(O)c(c(/C=N/N5CCN(C)CC5)c(O)c4c3C2=O)NC(=O)/C(C)=C\C=C\[C@H](C)[C@H](O)[C@@H](C)[C@@H](O)[C@@H](C)[C@H](OC(C)=O)[C@@H]1C` [rifampicin], the Broth counts in experiment [4] was 10^2 bacteria/ml. Also, the “Broth dilution counts of rifampicin treated cultures” value in experiment [4] is 10^2 bacteria/ml. For the same molecule, the “[3H]-uridine incorporation” value in experiment [5] (100 μg/ml rifampicin 1 day, washed, then 20 h with [3H]-uridine) turned out to be 2228 ± 88 counts per minute; in experiment [5] (100 μg/ml rifampicin 2 days, washed, then 20 h with [3H]-uridine), 2316 ± 120 counts per minute; in experiment [5] (100 μg/ml rifampicin 3 days, washed, then 20 h with [3H]-uridine), 2430 ± 54 counts per minute; in experiment [5] (100 μg/ml rifampicin 4 days, washed, then 20 h with [3H]-uridine), 2318 ± 126 counts per minute; in experiment [5] (100 μg/ml rifampicin 5 days, washed, then 20 h with [3H]-uridine), 2388 ± 20 counts per minute; in experiment [5] (5*: 5 days, not washed, [3H]-uridine 20 h in the presence of rifampicin), 518 ± 10 counts per minute. Besides, the “increase of radioactive uridine incorporation after removal of rifampicin” value in experiment [5] (medium alone versus in the presence of rifampicin (5 versus 5* days)) was “about 5 fold”. In addition, in experiment [6], the “increase of level of transcription (16K, sigA and rpoB transcripts) after removal of rifampicin” value is recorded as 5- to 10 fold.
